Experimental data taken from US20160242416A1, “FUNGICIDAL ISOXAZOLINE CARBINOLS” (E I DU PONT DE NEMOURS AND COMPANY, priority 2015, published 2016).

What was measured:
[1] = tested on: Erysiphe graminis f sp. tritici; test: Test G: wheat powdery mildew, preventive spray on wheat seedlings; details: 100 = 100% disease control; for Test G rating (% disease control): 10 ppm, wheat powdery mildew, 0 = no control; for Test G disease control rating: 10 ppm test solution, 0 = no control relative to controls
[2] = tested on: Puccinia recondita f sp. tritici; test: Test F: wheat leaf rust, preventive spray on wheat seedlings; details: 100 = 100% disease control; for Test F rating (% disease control): 10 ppm, wheat leaf rust, 0 = no control; for Test F disease control rating: 10 ppm test solution, 0 = no control relative to controls
Stagonospora nodorum = test: Test D: wheat glume blotch, preventive spray on wheat seedlings; details: 100 = 100% disease control; for Test D rating (% disease control): 10 ppm, wheat glume blotch, 0 = no control; for Test D disease control rating: 10 ppm test solution, 0 = no control relative to controls
Zymoseptoria tritici = test: Test E: wheat leaf blotch, preventive spray on wheat seedlings; details: 100 = 100% disease control; for Test E rating (% disease control): 10 ppm, wheat leaf blotch, 0 = no control; for Test E disease control rating: 10 ppm test solution, 0 = no control relative to controls
Botrytis cinerea = test: Test B: gray mold, preventive spray on tomato seedlings; details: 100 = 100% disease control; for Test B rating (% disease control): 10 ppm, gray mold on tomato, 0 = no control; for Test B disease control rating: 10 ppm test solution, 0 = no control relative to controls

| Compound | Test G rating (% disease control) [1] [%] | Test F rating (% disease control) [2] [%] | Test D rating (% disease control) (Stagonospora nodorum) [%] | Test E rating (% disease control) (Zymoseptoria tritici) [%] | Test B rating (% disease control) (Botrytis cinerea) [%] | Test G disease control rating [1] [%] | Test F disease control rating [2] [%] | Test D disease control rating (Stagonospora nodorum) [%] | Test E disease control rating (Zymoseptoria tritici) [%] | Test B disease control rating (Botrytis cinerea) [%] |
| --- | --- | --- | --- | --- | --- | --- | --- | --- | --- | --- |
| CC(C)(C)CC(O)(Cn1cncn1)C1=NOC(Cc2ccc(Cl)cc2)C1 (single isomer, unassigned) [Compound 206] | 99 | 100 | 86 | 13 | 9 |  |  |  |  |  |
| CC(C)(C)CC(O)(Cn1cncn1)C1=NOC(COc2ccc(Cl)cc2)C1 (single isomer, unassigned) [Compound 172] | 99 | 100 | 100 | 4 | 0 |  |  |  |  |  |
| OC(Cn1cncn1)(C1=NOC(Cc2ccc(Br)cc2)C1)c1ccc(Cl)cc1 (single isomer, unassigned) [Compound 55] | 99 | 99 | 73 | 2 | 0 |  |  |  |  |  |
| CCC(C)(C)C(O)(Cn1cncn1)C1=NOC(COc2ccc(Br)cc2)C1 (single isomer, unassigned) [Compound 12] | 96 | 99 | 68 | 57 | 0 |  |  |  |  |  |
| CC(C)(C)C(O)(Cn1cncn1)C1=NOC(COc2cccc(Cl)c2)C1 (single isomer, unassigned) [Compound 230] |  |  |  |  |  | 99 | 100 | 100 | 8 | 99 |
| CS(=O)(=O)c1ccc(C2CC(C(O)(Cn3cncn3)c3ccc(Cl)cc3)=NO2)cc1 (single isomer, unassigned) [Compound 114] | 56 | 36 | 0 | 39 | 0 |  |  |  |  |  |
| CC(C)(C)CC(O)(Cn1cncn1)C1=NOC(Cc2ccc(Cl)cc2)C1 (single isomer, unassigned) [Compound 207] | 100 | 100 | 99 | 44 | 0 |  |  |  |  |  |
| CC(C)(C)C(O)(Cn1cncn1)C1=NOC(COc2ccc(OC(F)(F)F)cc2)C1 (single isomer, unassigned) [Compound 25] | 100 | 99 | 59 | 0 | 0 |  |  |  |  |  |
| CC(C)(C)C(O)(Cn1cncn1)C1=NOC(COc2ccc(-n3cccn3)cc2)C1 (single isomer, unassigned) [Compound 29] | 99 | 0 | 49 | 0 | 0 |  |  |  |  |  |
| OC(Cn1cncn1)(C1=NOC(COC2CCCCC2)C1)c1ccc(Cl)cc1 (single isomer, unassigned) [Compound 90] | 64 | 0 | 59 | 0 | 0 |  |  |  |  |  |
| CC(C)(C)C(O)(Cn1cncn1)C1=NOC(COc2ccc(Br)cc2)C1 (single isomer, unassigned) [Compound 183] | 100 | 100 | 99 | 35 | 24 |  |  |  |  |  |
| CC(C)(C)C(O)(Cn1cncn1)C1=NOC(COC2CCCCC2)C1 (single isomer, unassigned) [Compound 91] | 56 | 0 | 20 | 2 | 0 |  |  |  |  |  |
| OC(Cn1cncn1)(C1=NOC(c2ccc(-n3cc(Br)cn3)cc2)C1)c1ccc(Cl)cc1 (single isomer, unassigned) [Compound 6] | 91 | 0 | 0 | 0 | 0 |  |  |  |  |  |
| CC(C)(C)C(O)(Cn1cncn1)C1=NOC(CSc2ccccc2)C1 (single isomer, unassigned) [Compound 73] | 56 | 9 | 62 | 0 | 25 |  |  |  |  |  |
| CC(C)(C)C(O)(Cn1cncn1)C1=NOC(COc2ccc(I)cc2)C1 (single isomer, unassigned) [Compound 184] | 100 | 100 | 100 | 94 | 44 |  |  |  |  |  |
| CC(C)(C)C(O)(Cn1cncn1)C1=NOC(COc2ccc(Cl)cn2)C1 (single isomer, unassigned) [Compound 96] | 99 | 100 | 100 | 5 | 85 |  |  |  |  |  |
| OC(Cn1cncn1)(C1=NOC(Cn2cc(Br)cn2)C1)c1ccc(Cl)cc1 (single isomer, unassigned) [Compound 37] | 99 | 94 | 0 | 0 | 0 |  |  |  |  |  |
| OC(Cn1cncn1)(C1=NOC(c2ccc(C(F)(F)F)cc2)C1)c1ccc(Cl)cc1 (single isomer, unassigned) [Compound 146] | 99 | 100 | 100 | 99 | 0 |  |  |  |  |  |
| OC(Cn1cncn1)(C1=NOC(Cc2ccc(F)cc2)C1)c1ccc(Cl)cc1 (single isomer, unassigned) [Compound 200] | 99 | 99 | 11 | 16 | 0 |  |  |  |  |  |
| CC#CC(O)(Cn1cncn1)C1=NOC(c2ccc(Cl)cc2)C1 (stereo not drawn) [Compound 104, α-[5-(4-chlorophenyl)-4,5-dihydro-3-isoxazolyl]-α-1-propyn-1-yl-1H-1,2,4-triazole-1-ethanol] | 93 | 97 | 100 | 0 | 0 |  |  |  |  |  |
| CCC(C)(C)C(O)(Cn1cncn1)C1=NOC(COc2ccc(Cl)cc2)C1 (single isomer, unassigned) [Compound 193] | 97 | 99 | 93 | 22 | 9 |  |  |  |  |  |
| CC(C)(C)C(O)(Cn1cncn1)C1=NOC(CCc2ccc(Cl)cc2)C1 (single isomer, unassigned) [Compound 16] | 99 | 100 | 100 | 8 | 32 |  |  |  |  |  |
| CC(C)(C)C(O)(Cn1cncn1)C1=NOC(CSc2ccc(Cl)cc2)C1 (single isomer, unassigned) [Compound 26] | 89 | 74 | 70 | 0 | 92 |  |  |  |  |  |
| CC(C)(C)C(O)(Cn1cncn1)C1=NOC(COc2ccc(F)cc2F)C1 (single isomer, unassigned) [Compound 21] | 99 | 100 | 100 | 0 | 9 |  |  |  |  |  |
| CC1(C(O)(Cn2cncn2)C2=NOC(c3ccc(Cl)cc3)C2)CC1 (single isomer, unassigned) [Compound 127] | 98 | 98 | 98 | 9 | 0 |  |  |  |  |  |
| CC(C)(C)C(O)(Cn1cncn1)C1=NOC(COc2ncc(Cl)cn2)C1 (single isomer, unassigned) [Compound 99] | 96 | 95 | 63 | 0 | 0 |  |  |  |  |  |
| OC(Cn1cncn1)(C1=NOC(Cn2ccc(C(F)(F)F)n2)C1)c1ccc(Cl)cc1 (single isomer, unassigned) [Compound 195] | 100 | 99 | 0 | 0 | 0 |  |  |  |  |  |
| CC(C)(C)C(O)(Cn1cncn1)C1=NOC(COc2cccc(Cl)c2)C1 (single isomer, unassigned) [Compound 231] |  |  |  |  |  | 99 | 100 | 100 | 6 | 80 |
